According to PubChem BioAssay (NCI):
Values joined by “and” are separate entries in the source; they are usually repeats but may differ in a detail not shown here. Equal values may be shown once.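 96-well plates; 48 h exposure; 5 concentrations. Endpoints by linear interpolation between flanking doses. Not reached: highest tested concentration assigned. At the GI50, growth is halved. TGI: total growth inhibition.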

How the values were obtained:
Assay in all cases: inhibition of tumour cell growth, NCI panel, 48 h
[1] = tested on: HT29 colon
[2] = tested on: BT-549 breast
[3] = tested on: NCI-H522 lung
[4] = tested on: SK-MEL-28 melanoma
[5] = tested on: SF-268 CNS
[6] = tested on: SW-620 colon
[7] = tested on: OVCAR-3 ovarian
[8] = tested on: HCC-2998 colon
[9] = tested on: UACC-257 melanoma
[10] = tested on: T-47D breast

Compound	GI50 [1]	TGI [1]	GI50 [2]	TGI [2]	GI50 [3]	TGI [3]	GI50 [4]	TGI [4]	GI50 [5]	TGI [5]	GI50 [6]	TGI [6]	GI50 [7]	TGI [7]	GI50 [8]	TGI [8]	GI50 [9]	TGI [9]	GI50 [10]	TGI [10]
O=C(COc1cccc(/C=C2\Oc3ccc4ccccc4c3C2=O)c1)c1ccc([N+](=O)[O-])cc1	36 µM	> 100 µM	17.3 µM	37.6 µM	11.2 µM	29.3 µM	48.4 µM	> 100 µM	13.3 µM	27.2 µM	14 µM	27 µM	14.9 µM	28 µM	15.7 µM	> 100 µM	> 100 µM	> 100 µM	12.6 µM	38.3 µM
O=c1[nH]c(=O)n(C2OC(CO)C(O)C2O)cc1F (stereo not given)	0.0697 µM	> 100 µM	–	> 100 µM	0.349 µM	30.6 µM	0.0471 µM	> 100 µM	0.0491 µM	> 100 µM	0.0314 µM	> 100 µM	0.0231 µM	10.9 µM	0.0346 µM	54.2 µM	1.33 µM	53.4 µM	–	> 100 µM
COc1ccc(C(Nc2ccccn2)c2cc(C(C)(C)C)cc(C(C)(C)C)c2O)cc1 (stereo not given)	–	> 100 µM	–	56.8 µM	–	17.7 µM	–	> 100 µM	–	> 100 µM	–	> 100 µM	–	43.6 µM	–	38.7 µM	–	> 100 µM	–	76.4 µM
CCCCC[C@H]1C/C=C2/C(=O)C(Cl)=C[C@@H]2C/C=C\CCCC(=O)O1	0.461 µM	2.26 µM	0.421 µM	0.825 µM	0.335 µM	0.755 µM	0.472 µM	1.12 µM	0.803 µM	3.72 µM	0.181 µM	1.3 µM	0.366 µM	1.26 µM	0.475 µM	0.855 µM	0.513 µM	1.41 µM	0.554 µM	2.08 µM
COc1ccc(NC(=O)c2cccc(C3CCc4c(cc(OC)c(OC)c4OC)O3)c2)cc1 (stereo not given)	3.17 µM	> 100 µM	2.83 µM	> 100 µM	2.29 µM	7.37 µM	4.12 µM	> 100 µM	5.13 µM	> 100 µM	4.45 µM	> 100 µM	3.54 µM	> 100 µM	6.01 µM	> 100 µM	3.72 µM	> 100 µM	2.49 µM	7.48 µM
OCC1OC(n2cnc3c(NCc4ccccc4O)ncnc32)C(O)C1O (stereo not given)	2.23 µM	52.9 µM	0.177 µM	2.29 µM	0.0939 µM	1.54 µM	4.15 µM	> 100 µM	0.616 µM	> 100 µM	0.291 µM	> 33.9 µM	0.388 µM	2.08 µM	1.76 µM	8.42 µM	> 83.6 µM	> 100 µM	0.345 µM	4.87 µM
N/C(=N/S(=O)(=O)c1cc(C(=O)Nc2ccc(F)cc2)c(Cl)cc1SCc1ccccc1)Nc1ccccc1O	11 µM	> 100 µM	1.83 µM	4.74 µM	3.88 µM	12.5 µM	2.14 µM	4.33 µM	2.12 µM	5.69 µM	1.88 µM	3.54 µM	1.44 µM	2.81 µM	2.86 µM	7.34 µM	12.2 µM	26.7 µM	7.3 µM	28.6 µM
CC(C)(C)OC(=O)N1Cc2cc3ccccc3nc2C1CO (stereo not given)	> 100 µM	> 100 µM	> 100 µM	> 100 µM	> 100 µM	> 100 µM	> 100 µM	> 100 µM	> 100 µM	> 100 µM	> 100 µM	> 100 µM	> 100 µM	> 100 µM	> 100 µM	> 100 µM	> 100 µM	> 100 µM	> 100 µM	> 100 µM
CCOC(=O)CCSC1=CC(=O)c2nc3ccccc3c3ccnc1c23	26.2 µM	53.8 µM	17.1 µM	34.3 µM	17.4 µM	43 µM	20.2 µM	41.1 µM	17.1 µM	39.4 µM	13.9 µM	41.6 µM	12.6 µM	37 µM	19.2 µM	40.2 µM	14.6 µM	35.7 µM	24.3 µM	76 µM
NCCCNc1nc2ccccc2c2c(=O)c3cc(F)cc(Cl)c3sc12	1.75 µM	3.29 µM	12.9 µM	26.7 µM	1.76 µM	3.68 µM	1.94 µM	3.49 µM	1.61 µM	3.29 µM	1.7 µM	3.28 µM	1.78 µM	3.25 µM	1.79 µM	3.68 µM	3.29 µM	11.2 µM	1.4 µM	4.23 µM
NC(=O)c1ncn2c(=O)n(CCCl)nnc12	–	367 µM	–	306 µM	–	384 µM	–	562 µM	10.7 µM	> 45 µM and 709 µM	51.2 µM	822 µM	–	475 µM	–	366 µM	–	391 µM	–	941 µM
OCC1OC(n2cnc3c(NCc4ccco4)ncnc32)C(O)C1O (stereo not given)	2.1 µM	> 38 µM	0.421 µM	2.64 µM	1.34 µM	22 µM	8.72 µM	> 100 µM	4.28 µM	> 100 µM	0.849 µM	> 100 µM	1.34 µM	3.12 µM	3.85 µM	40 µM	52.5 µM	> 100 µM	2.43 µM	11.3 µM
COc1cc(NCCC2CCCCN2)c2ncccc2c1OC (stereo not given)	13 µM	33.6 µM	19.9 µM	34.8 µM	2.41 µM	9.05 µM	11.7 µM	24.8 µM	14.2 µM	41.8 µM	5.5 µM	21.2 µM	2.13 µM	5.01 µM	16.9 µM	31.8 µM	2.79 µM	9.36 µM	2.91 µM	14.4 µM
C=C1C(=O)O[C@H]2[C@H]1CC/C(COC(=O)/C=C\C(=O)NCc1ccc(Cn3c(=O)sn(-c4ccc(Cl)cc4)c3=O)cc1)=C\CC[C@@]1(C)O[C@@H]21	0.369 µM	1.52 µM	0.591 µM	1.51 µM	0.632 µM	1.55 µM	0.816 µM	1.55 µM	0.71 µM	1.43 µM	0.242 µM	0.915 µM	0.223 µM	0.821 µM	0.896 µM	1.7 µM	0.8 µM	1.72 µM	0.881 µM	2.15 µM
CN(C)C/C=C/C(=O)Nc1cc2c(Nc3cccc(Cl)c3F)ncnc2cc1OCCOC(F)F	1.31 µM	10.6 µM	2.02 µM	9.57 µM	0.0289 µM	2.04 µM	3.11 µM	15.3 µM	1.44 µM	9.76 µM	2.05 µM	11.6 µM	0.343 µM	4 µM	2.1 µM	10.9 µM	3.59 µM	15.5 µM	0.0376 µM	1.11 µM
NS(=O)(=O)c1cc(C(=O)O)c(Cl)c([N+](=O)[O-])c1Cl	–	> 100 µM	–	> 100 µM	–	> 100 µM	–	> 100 µM	–	> 100 µM	–	> 100 µM	–	> 100 µM	–	> 100 µM	–	> 100 µM	–	> 100 µM
CC1(C)CN(CCNc2nccc(-c3c(-c4cccc(O)c4)nc4sccn34)n2)S(=O)(=O)N1	3.2 µM	> 33.2 µM	> 22.5 µM	> 33.2 µM	8.52 µM	> 33.2 µM	0.268 µM	> 33.2 µM	21.8 µM	> 33.2 µM	15.7 µM	> 33.2 µM	12.2 µM	> 33.2 µM	19.5 µM	> 33.2 µM	2.12 µM	> 33.2 µM	11.2 µM	> 33.2 µM
CCOC(=O)c1cc2c(n1Cc1cc(OC)cc(OC)c1)-c1oncc1CC2	0.073 µM	> 100 µM	4.37 µM	> 100 µM	0.0404 µM	> 91.5 µM	0.25 µM	> 100 µM	3.18 µM	> 100 µM	0.0859 µM	> 100 µM	0.0389 µM	0.197 µM	0.411 µM	> 100 µM	47 µM	> 100 µM	31.1 µM	> 100 µM
Nc1nc(N)c(-c2ccc(Cl)c(Cl)c2)c(CP(Cl)(Cl)(Cl)Br)n1	6.14 µM	> 100 µM	40.7 µM	> 100 µM	21.2 µM	> 100 µM	20.6 µM	> 100 µM	7.05 µM	> 100 µM	4.2 µM	> 100 µM	21.1 µM	> 100 µM	19.9 µM	> 100 µM	8.35 µM	84.7 µM	34.1 µM	> 100 µM
C[C@@H](Oc1cc(-c2cnn(C3CCNCC3)c2)cnc1N)c1c(Cl)cc(F)cc1Cl	1.11 µM	3.56 µM	4.08 µM	13 µM	1.79 µM	5.73 µM	1.56 µM	3.17 µM	3.05 µM	12.1 µM	0.893 µM	8.13 µM	4.13 µM	13.5 µM	2.42 µM	8.65 µM	1.49 µM	3.07 µM	1.74 µM	4.58 µM
CCN(CC)CCCNc1cc(OC)c(OC)c2cccnc12	13.4 µM	40.3 µM	18.6 µM	36.5 µM	2.38 µM	10.5 µM	15.7 µM	32.9 µM	14.4 µM	46.3 µM	1.8 µM	20.2 µM	2.19 µM	5.13 µM	11.9 µM	25.7 µM	4.55 µM	22.4 µM	16.4 µM	42 µM
